Experimental data taken from US12577227B2, “WDR5 inhibitors and modulators” (Vanderbilt University, priority 2019, dated 2026).

What follows are compounds tested on MV4:11 human cancer cell lines (assay: Cellular viability / anti-proliferative activity (CellTiter-Glo)). Details: MV4-11, 120 h, MV-4-11 cells, 5 day protocol, mean of minimum two replicates, read-out: GI50 on cellular proliferation of MV4:11 human cancer cell lines.
Assay type: cell-based
Procedure, shortened: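 MV-4-11 cells in IMDM/10% FBS, 200 cells per well, exposed 5 days to 22 two-fold dilutions from 30 μM (0.3% DMSO final). Viability read by CellTiter-Glo luminescence; GI50 from sigmoidal dose-response, mean of at least two replicates.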

Compound	GI50 [nM]
COc1cc(Cn2c(C)nc3c(-c4ccc(F)cc4C)cc(CNC4=NCCN4)cc3c2=O)cc(OC)c1 [Example 21, 6-(((4,5-Dihydro-1H-imidazol-2-yl)amino)methyl)-3-(3,5-dimethoxybenzyl)-8-(4-fluoro-2-methylphenyl)-2-methylquinazolin-4(3H)-one]	194
Cc1ccnc(CN2C[C@H](C)Oc3c(cc(Cn4ccnc4C)cc3-c3cn(C)nc3C(F)(F)F)C2=O)c1 [Example 39, (S)-2-Methyl-7-((2-methyl-1H-imidazol-1-yl)methyl)-9-(1-methyl-3-(trifluoromethyl)-1H-pyrazol-4-yl)-4-((4-methylpyridin-2-yl)methyl)-3,4-dihydrobenzo[f][1,4]oxazepin-5(2H)-one]	730
Cc1cc(C)nc(CN2CCOc3c(cc(Cn4ccnc4C)cc3-c3ccccc3C)C2=O)c1 [Example 45, 4-((4,6-Dimethylpyridin-2-yl)methyl)-7-((2-methyl-1H-imidazol-1-yl)methyl)-9-(o-tolyl)-3,4-dihydrobenzo[f][1,4]oxazepin-5(2H)-one]	157
COc1ccnc([C@H](C)N2CCOc3c(cc(Cn4cnn(C)c4=N)cc3-c3ccc(F)cc3Cl)C2=O)c1 [Example 54, (S)-9-(2-Chloro-4-fluorophenyl)-7-((5-imino-1-methyl-1,5-dihydro-4H-1,2,4-triazol-4-yl)methyl)-4-(1-(4-methoxypyridin-2-yl)ethyl)-3,4-dihydrobenzo[f][1,4]oxazepin-5(2H)-one]	9
CCc1nccn1Cc1cc2c(c(-c3cn(C)nc3C(F)(F)F)c1)OCCN(Cc1cc(C)cc(C)n1)C2=O [Example 38, 4-((4,6-Dimethylpyridin-2-yl)methyl)-7-((2-ethyl-1H-imidazol-1-yl)methyl)-9-(1-methyl-3-(trifluoromethyl)-1H-pyrazol-4-yl)-3,4-dihydrobenzo[f][1,4]oxazepin-5(2H)-one]	262
CCc1nccn1Cc1cc2c(c(-c3cn(C)nc3C(F)(F)F)c1)OCCN(Cc1cc(C)ccn1)C2=O [Example 37, 7-((2-Ethyl-1H-imidazol-1-yl)methyl)-9-(1-methyl-3-(trifluoromethyl)-1H-pyrazol-4-yl)-4-((4-methylpyridin-2-yl)methyl)-3,4-dihydrobenzo[f][1,4]oxazepin-5(2H)-one]	1080
COc1cc(Cn2cnc3c(-c4ccc(F)cc4C)cc(Cn4cnn(C)c4=N)cc3c2=O)cc(OC)c1 [Example 18, 3-(3,5-Dimethoxybenzyl)-8-(4-fluoro-2-methylphenyl)-6-((5-imino-1-methyl-1,5-dihydro-4H-1,2,4-triazol-4-yl)methyl)quinazolin-4(3H)-one]	672
COc1cc(CN2C[C@H](C)Oc3c(cc(Cn4ccn(C)c4=N)cc3-c3ccc(F)cc3C)C2=O)cc(OC)c1 [Example 35, (S)-4-(3,5-Dimethoxybenzyl)-9-(4-fluoro-2-methylphenyl)-7-((2-imino-3-methyl-2,3-dihydro-1H-imidazol-1-yl)methyl)-2-methyl-3,4-dihydrobenzo[f][1,4]oxazepin-5(2H)-one]	306
COc1ccc2c(c1)C(N1CCOc3c(cc(Cn4ccnc4C)cc3-c3cn(C)nc3C(F)(F)F)C1=O)CCC2 (centres unmarked) [Example 57, 4-(7-Methoxy-1,2,3,4-tetrahydronaphthalen-1-yl)-7-((2-methyl-1H-imidazol-1-yl)methyl)-9-(1-methyl-3-(trifluoromethyl)-1H-pyrazol-4-yl)-3,4-dihydrobenzo[f][1,4]oxazepin-5(2H)-one]	29
COc1cc(CN2CCOc3c(cc(Cn4ccn(C)c4=N)cc3-c3cn(C)nc3C(F)(F)F)C2=O)cc(OC)c1 [Example 16, 4-(3,5-Dimethoxybenzyl)-7-((2-imino-3-methyl-2,3-dihydro-1H-imidazol-1-yl)methyl)-9-(1-methyl-3-(trifluoromethyl)-1H-pyrazol-4-yl)-3,4-dihydrobenzo[f][1,4]oxazepin-5(2H)-one]	79
Cc1cc(C)nc(CN2CCOc3c(cc(Cn4ccnc4C)cc3-c3ccc(F)cc3C)C2=O)c1 [Example 41, 4-((4,6-Dimethylpyridin-2-yl)methyl)-9-(4-fluoro-2-methylphenyl)-7-((2-methyl-1H-imidazol-1-yl)methyl)-3,4-dihydrobenzo[f][1,4]oxazepin-5(2H)-one]	985
COc1ccc2nccc(N3CCOc4c(cc(Cn5ccnc5C)cc4-c4cn(C)nc4C(F)(F)F)C3=O)c2c1 [Example 58, 4-(6-Methoxyquinolin-4-yl)-7-((2-methyl-1H-imidazol-1-yl)methyl)-9-(1-methyl-3-(trifluoromethyl)-1H-pyrazol-4-yl)-3,4-dihydrobenzo[f][1,4]oxazepin-5(2H)-one]	77
Cc1cc(C)nc(CN2CCOc3c(cc(Cn4ccnc4C)cc3-c3cc(Cl)ccc3C)C2=O)c1 [Example 52, 9-(5-Chloro-2-methylphenyl)-4-((4,6-dimethylpyridin-2-yl)methyl)-7-((2-methyl-1H-imidazol-1-yl)methyl)-3,4-dihydrobenzo[f][1,4]oxazepin-5(2H)-one]	63
COc1cc(CN2CC(C)Oc3c(cc(Cn4ccn(C)c4=N)cc3-c3ccc(F)cc3C)C2=O)cc(OC)c1 (centres unmarked) [Example 17, 4-(3,5-Dimethoxybenzyl)-9-(4-fluoro-2-methylphenyl)-7-((2-imino-3-methyl-2,3-dihydro-1H-imidazol-1-yl)methyl)-2-methyl-3,4-dihydrobenzo[f][1,4]oxazepin-5(2H)-one]	22
